Measurements as given in US5164190A, “Subsaturated transdermal drug delivery device exhibiting enhanced drug flux” (Theratech, Inc., priority 1990, dated 1992).
Structures can show the parent of a compound that is named as a salt. Where two headings read alike, the source gives them in different places. One block for each molecule: values may come before it.

Columns and labels:
[1] = format: in vitro ADME, human
Method: (§1) The term "skin flux" intends the rate of transfer of drug across skin as measured by the method of Merritt and Cooper (J Controlled Release (1984) 1:161). The units of flux are preferably μg/cm^2 /hr.
(§2) The following examples further illustrate the invention and its unique characteristics. These examples are not intended to limit the invention in any manner. In the following examples in vitro steady state transdermal flux across human cadaver skin was determined using the method of Merritt and Cooper, supra. Unless otherwise indicated percentages and proportions are by volume.
Formulations of progesterone at varying concentrations were made by mixing progesterone with the indicated ingredients and applied to cadaver skin. The meanings of the abbreviations that appear in the table are: Gly=glycerine; GDO=glycerol dioleate; ML=methyl laurate; OA=oleic acid; GMO=glycerol monooleate.
Additional progesterone systems were formulated and tested as in Example 1. Abbreviations are as in Example 1. Progesterone was present at saturation in system 1 and below saturation in systems 2-6.
Formulations of the hydrophilic drugs oxybutynin HCl and mecamylamine HCl were prepared and tested as in Examples 1 and 2. The formulations of Table 3 containing oxybutynin HCl at 40 mg/ml were saturated and the formulations of Table 4 containing 80 mg/ml of mecamylamine HCl were saturated. All other systems were at drug concentrations below saturation.
[…]. The matrix containing 30% norethindrone acetate was saturated; all others were subsaturated.

[2] = cumulative permeation at 24 hr through skin in vitro; format: in vitro ADME, human; details: for Cumulative Permeation: 24 hr
Method: as §1
as §2, with “volume. […]” for “volume.”
[…]. The matrix containing 8% estradiol was saturated; the others were subsaturated.
The matrix containing 8% estradiol was saturated; the others were subsaturated.

SMILES: CCN(CC)CC#CCOC(=O)C(O)(c1ccccc1)C1CCCCC1 (stereo not shown) [Oxybutyrin, oxybutynin HCl]
Flux ([1]; Table 3 system 1, 5 mg/ml, 40/53/5/2 EtOH/H2O/Gly/GMO, N=3): 5.6 ± 0.9 μg/cm^2 /hr
Flux ([1]; Table 3 system 1, 10 mg/ml, 40/53/5/2 EtOH/H2O/Gly/GMO, N=6): 13.3 ± 2.6 μg/cm^2 /hr
Flux ([1]; Table 3 system 1, 20 mg/ml, 40/53/5/2 EtOH/H2O/Gly/GMO, N=12): 16.9 ± 5.2 μg/cm^2 /hr
Flux ([1]; Table 3 system 1, 40 mg/ml (saturated), 40/53/5/2 EtOH/H2O/Gly/GMO, N=4): 29.1 ± 11.2 μg/cm^2 /hr
Flux ([1]; Table 3 system 2, 5 mg/ml, 40/54/5/1 EtOH/H2O/Gly/GMO, N=3): 8.0 ± 1.4 μg/cm^2 /hr
Flux ([1]; Table 3 system 2, 10 mg/ml, 40/54/5/1 EtOH/H2O/Gly/GMO, N=6): 10.1 ± 3.3 μg/cm^2 /hr
Flux ([1]; Table 3 system 2, 20 mg/ml, 40/54/5/1 EtOH/H2O/Gly/GMO, N=12): 17.5 ± 5.1 μg/cm^2 /hr
Flux ([1]; Table 3 system 2, 40 mg/ml (saturated), 40/54/5/1 EtOH/H2O/Gly/GMO, N=5): 38.8 ± 18.9 μg/cm^2 /hr
Flux ([1]; Table 3 system 3, 5 mg/ml, 30/63/5/2 EtOH/H2O/Gly/GMO, N=3): 2.2 ± 0.2 μg/cm^2 /hr
Flux ([1]; Table 3 system 3, 10 mg/ml, 30/63/5/2 EtOH/H2O/Gly/GMO, N=9): 8.3 ± 3.8 μg/cm^2 /hr
Flux ([1]; Table 3 system 3, 20 mg/ml, 30/63/5/2 EtOH/H2O/Gly/GMO, N=12): 14.8 ± 6.1 μg/cm^2 /hr
Flux ([1]; Table 3 system 3, 40 mg/ml (saturated), 30/63/5/2 EtOH/H2O/Gly/GMO, N=6): 23.9 ± 10.0 μg/cm^2 /hr
Flux ([1]; Table 3 system 4, 5 mg/ml, 30/64/5/1 EtOH/H2O/Gly/GMO, N=3): 1.7 ± 0.3 μg/cm^2 /hr
Flux ([1]; Table 3 system 4, 10 mg/ml, 30/64/5/1 EtOH/H2O/Gly/GMO, N=6): 5.4 ± 2.5 μg/cm^2 /hr
Flux ([1]; Table 3 system 4, 20 mg/ml, 30/64/5/1 EtOH/H2O/Gly/GMO, N=15): 13.6 ± 5.2 μg/cm^2 /hr
Flux ([1]; Table 3 system 4, 40 mg/ml (saturated), 30/64/5/1 EtOH/H2O/Gly/GMO, N=6): 27.5 ± 13.1 μg/cm^2 /hr

Cumulative Permeation ([2]; Table 7, 1% estradiol, acrylic adhesive matrix with 20% sorbitan monooleate, S.D. 1.40): 11.36 μg/cm^2
Cumulative Permeation ([2]; Table 7, 2% estradiol, acrylic adhesive matrix with 20% sorbitan monooleate, S.D. 6.24): 28.31 μg/cm^2
Cumulative Permeation ([2]; Table 7, 3% estradiol, acrylic adhesive matrix with 20% sorbitan monooleate, S.D. 6.64): 40.88 μg/cm^2
Cumulative Permeation ([2]; Table 7, 4% estradiol, acrylic adhesive matrix with 20% sorbitan monooleate, S.D. 4.46): 44.94 μg/cm^2
Cumulative Permeation ([2]; Table 7, 6% estradiol, acrylic adhesive matrix with 20% sorbitan monooleate, S.D. 3.03): 22.56 μg/cm^2
Cumulative Permeation ([2]; Table 7, 8% estradiol (saturated), acrylic adhesive matrix with 20% sorbitan monooleate, S.D. 5.25): 12.93 μg/cm^2
Cumulative Permeation ([2]; Table 8, 1% estradiol, acrylic adhesive matrix without permeation enhancer, S.D. 1.84): 9.33 μg/cm^2
Cumulative Permeation ([2]; Table 8, 2% estradiol, acrylic adhesive matrix without permeation enhancer, S.D. 1.42): 16.55 μg/cm^2
Cumulative Permeation ([2]; Table 8, 3% estradiol, acrylic adhesive matrix without permeation enhancer, S.D. 2.16): 21.21 μg/cm^2
Cumulative Permeation ([2]; Table 8, 4% estradiol, acrylic adhesive matrix without permeation enhancer, S.D. 0.64): 16.11 μg/cm^2
Cumulative Permeation ([2]; Table 8, 6% estradiol, acrylic adhesive matrix without permeation enhancer, S.D. 0.27): 18.42 μg/cm^2
Cumulative Permeation ([2]; Table 8, 8% estradiol (saturated), acrylic adhesive matrix without permeation enhancer, S.D. 3.93): 9.20 μg/cm^2
SMILES: C[C@]12CC[C@@H]3c4ccc(O)cc4CC[C@H]3[C@@H]1CC[C@@H]2O [estradiol]
maximum permeation versus estradiol concentration ([2]; matrices with sorbitan monolaurate, ointments EtOH/H2O/Gly/GMO/ML 20/60/5/7.5/7.5): maximum permeation was observed at estradiol concentrations below saturation

SMILES: CC(C)NCC(O)COc1cccc2[nH]ccc12 (stereo not shown) [pindolol free base, pindolol]
dependence of flux on drug concentration ([1]; ointment and solid matrix systems): classic Fickian dependence of flux on drug concentration

Flux ([1]; Table 1 system 1, 75.0 mg/ml (saturated), 60/22.5/10/2.5/2.5/2.5 EtOH/H2O/Gly/GDO/ML/OA, N=8): 2.12 ± 0.47 μg/cm^2 /hr
Flux ([1]; Table 1 system 2, 50 mg/ml, 60/22.5/10/2.5/2.5/2.5 EtOH/H2O/Gly/GDO/ML/OA, N=18): 4.51 ± 1.37 μg/cm^2 /hr
Flux ([1]; Table 1 system 3, 25 mg/ml, 60/22.5/10/2.5/2.5/2.5 EtOH/H2O/Gly/GDO/ML/OA, N=3): 5.52 ± 1.38 μg/cm^2 /hr
Flux ([1]; Table 1 system 4, 75 mg/ml (saturated), 60/22.5/10/2.5/2.5/2.5 EtOH/H2O/Gly/GMO/ML/OA, N=8): 3.35 ± 2.18 μg/cm^2 /hr
Flux ([1]; Table 1 system 5, 50 mg/ml, 60/22.5/10/2.5/2.5/2.5 EtOH/H2O/Gly/GMO/ML/OA, N=18): 7.63 ± 3.00 μg/cm^2 /hr
Flux ([1]; Table 1 system 6, 37.5 mg/ml, 60/22.5/10/2.5/2.5/2.5 EtOH/H2O/Gly/GMO/ML/OA, N=6): 8.18 ± 0.90 μg/cm^2 /hr
Flux ([1]; Table 1 system 7, 25 mg/ml, 60/22.5/10/2.5/2.5/2.5 EtOH/H2O/Gly/GMO/ML/OA, N=18): 6.37 ± 1.88 μg/cm^2 /hr
Flux ([1]; Table 1 system 8, 10 mg/ml, 60/22.5/10/2.5/2.5/2.5 EtOH/H2O/Gly/GMO/ML/OA, N=3): 1.84 ± 0.33 μg/cm^2 /hr
flux at subsaturated concentrations versus at saturation ([1]; Table 1 systems, except 8): significantly greater
Flux ([1]; Table 2 system 1, 50 mg/ml (saturated), 60/22.5/10/2.5/2.5/2.5 EtOH/H2O/Gly/GDO/ML/OA, N=12): 6.01 ± 1.73 μg/cm^2 /hr
Flux ([1]; Table 2 system 2, 30 mg/ml, 60/28/10/1/1 EtOH/H2O/Gly/GMO/ML, N=3): 13.03 ± 3.35 μg/cm^2 /hr
Flux ([1]; Table 2 system 3, 25 mg/ml, 60/28/10/1/1 EtOH/H2O/Gly/GMO/ML, N=3): 12.98 ± 2.06 μg/cm^2 /hr
Flux ([1]; Table 2 system 4, 20 mg/ml, 60/28/10/1/1 EtOH/H2O/Gly/GMO/ML, N=9): 15.89 ± 6.81 μg/cm^2 /hr
Flux ([1]; Table 2 system 5, 15 mg/ml, 60/28/10/1/1 EtOH/H2O/Gly/GMO/ML, N=12): 13.13 ± 1.87 μg/cm^2 /hr
Flux ([1]; Table 2 system 6, 10 mg/ml, 60/28/10/1/1/1 EtOH/H2O/Gly/GMO/ML, N=5): 11.13 ± 1.98 μg/cm^2 /hr
fluxes at concentrations below saturation versus at saturation ([1]; Table 2 systems): significantly greater than at saturation
SMILES: CC(=O)[C@H]1CC[C@H]2[C@@H]3CCC4=CC(=O)CC[C@]4(C)[C@H]3CC[C@]12C [progesterone]
